Measured values: paper PMC10931833, “Simultaneous Purification of Human Interferon Alpha-2b and Serum Albumin Using Bioprivileged Fluorinated Ionic Liquid-Based Aqueous Biphasic Systems” (International Journal of Molecular Sciences, 2024)

Tests used:
BSA [1] = target: T1, BSA (Bos taurus, UniProt P02769); assay: DSC thermal unfolding of BSA in water and aqueous solutions of ABS phase-forming components; assay type: physicochemical, bovine; details: for Tm / ΔG / ΔHcal / ΔHcal/ΔHvH / ΔHvH / ΔS: 1.0 mg/mL BSA
T1 construct: purchased Millipore Sigma-Aldrich
Summary of the method: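 T m and unfolding enthalpy (ΔH) of BSA were taken from heat capacity versus temperature scans by nano DSC. BSA was scanned in water and with increasing concentrations of each ABS phase-forming component. T m is the midpoint of the thermal unfolding transition.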

BSA [2] = target: T1, BSA; assay: CD thermal unfolding (Tm) of BSA; assay type: physicochemical, bovine; details: 1.0 mg/ml BSA, 200 mM component aqueous solution
Excerpt: The thermal stability assessed by far-UV CD is solely determined through the thermal decay of the alpha-helical structure.

[3] = design: method as in earlier work; details: aqueous solution at 25 °C; ITC ([C2C1Im][C4F9SO3]) or conductometry ([N1112(OH)][C4F9SO3]); ref 3 (supplement; main text ref 71); cited from earlier work
IFN-α2b [4] = target: T2, IFN-α2b (Homo sapiens, UniProt P01563); assay: Far-UV CD secondary structure of IFN-α2b (CONTIN-LL deconvolution); assay type: physicochemical; details: 0.125 mg/mL IFN-α2b, 200 mM component, 25 °C
T2 construct: single non-glycosylated polypeptide chain with a molecular weight of 19 kDa, comprising 165 amino acids; purchased Millipore Sigma-Aldrich SRP4595-100UG; host or cells: E. coli
Excerpt: Circular dichroism (CD) is widely used to study the secondary structures of proteins, peptides and nucleic acids, because it requires a low concentration sample, is a nondestructive method, allows studying a wide range of variables (temperature, pH, etc.), and provides information on the effect of added ligands on protein folding and interactions.
Circular dichroism (CD) spectra were collected in a 10 mm quartz cuvette and a Chirascan spectropolarimeter (Applied Photophysics, UK) at room temperature. All CD spectra were recorded in the far-UV range of 190 to 260 nm at scan rates of 50 nm/min, with 4 accumulations, and a response time of 3 s; CD spectra were collected. For each CD experiment, two distinct duplicates were acquired and combined. […] Spectral deconvolution was carried out with DichroWeb using the CONTIN-LL deconvolution algorithm with the SMP180 reference set.

IFN-α2b [5] = target: T2, IFN-α2b; assay: CD thermal unfolding (Tm) of IFN-α2b; assay type: physicochemical; details: 0.125 mg/ml IFN-α2b, 200 mM component aqueous solution
Procedure: The same analyses attained for 208 nm and 192 nm are illustrated in Figures S5 and S6 in the Supplementary Materials. The corresponding T m values are estimated by fitting to a sigmoid with four parameters (one-way ANOVA, significance level of 0.05) and summarized in Table S2 in the Supplementary Materials. The CD T m of 0.125 mg/mL native IFN- α 2b is in good agreement with what was previously reported. […] The estimated T m values are summarized in Table S2 in the Supplementary Materials. The same analysis is attained for 208 nm and 192 nm, as depicted in Figures S5 and S6 in the Supplementary Materials. All the CD T m results are summarized in Table S2 in the Supplementary Materials. The thermal stability assessed by far-UV CD is solely determined through the thermal decay of the alpha-helical structure.
The same analysis was attained for 208 nm and 192 nm as illustrated in Figure S13 in the Supplementary Materials. The corresponding T m values are depicted in Table 5, and were estimated by fitting a sigmoid with four parameters (one-way ANOVA, with a significance level of 0.05).

T1 sequence (P02769 25-607): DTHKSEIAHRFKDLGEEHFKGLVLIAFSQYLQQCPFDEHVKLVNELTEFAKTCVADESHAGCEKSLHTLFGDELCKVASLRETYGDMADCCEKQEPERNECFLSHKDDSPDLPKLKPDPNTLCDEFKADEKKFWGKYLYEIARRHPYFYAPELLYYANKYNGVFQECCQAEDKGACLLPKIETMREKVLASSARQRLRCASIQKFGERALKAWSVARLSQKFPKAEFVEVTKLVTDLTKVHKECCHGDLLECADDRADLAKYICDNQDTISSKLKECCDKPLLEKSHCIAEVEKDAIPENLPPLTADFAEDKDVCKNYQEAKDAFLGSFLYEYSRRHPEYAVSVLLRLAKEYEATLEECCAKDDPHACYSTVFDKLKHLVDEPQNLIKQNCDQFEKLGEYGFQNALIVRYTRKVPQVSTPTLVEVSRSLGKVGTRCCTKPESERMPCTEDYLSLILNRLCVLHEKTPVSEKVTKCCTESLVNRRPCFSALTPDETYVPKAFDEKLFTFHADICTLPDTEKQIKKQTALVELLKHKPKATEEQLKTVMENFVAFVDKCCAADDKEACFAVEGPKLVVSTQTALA
T2 sequence (P01563 24-188): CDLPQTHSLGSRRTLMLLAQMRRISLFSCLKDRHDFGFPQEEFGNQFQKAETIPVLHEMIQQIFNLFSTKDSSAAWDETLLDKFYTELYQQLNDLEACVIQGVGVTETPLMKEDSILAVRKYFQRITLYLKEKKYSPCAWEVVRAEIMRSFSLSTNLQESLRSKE

**Q.** Which Tm (BSA [1]; 0.1 mM component) does the source give for `C[N+](C)(C)CCO.O=S(=O)([O-])C(F)(F)C(F)(F)C(F)(F)C(F)(F)F` [[N1112(OH)][C4F9SO3], (2-hydroxyethyl)trimethylammonium perfluorobutane sulfonate] here?
**A.** 79.77 °C

**Q.** And the ΔG (BSA [1]; 0.1 mM component)?
**A.** 93.90 kJ/mol

**Q.** What about the ΔHcal (BSA [1]; 0.1 mM component) of the same compound?
**A.** 603.1 kJ/mol

**Q.** And the ΔHcal/ΔHvH (BSA [1]; 0.1 mM component)?
**A.** 1.064

**Q.** What about the ΔHvH (BSA [1]; 0.1 mM component) of the same compound?
**A.** 567.0 kJ/mol

**Q.** What about the ΔS (BSA [1]; 0.1 mM component) of the same compound?
**A.** 1.708 KJ/(mol.K)

**Q.** What about the Tm (BSA [1]; 1 mM component) of the same compound?
**A.** 80.57 °C

**Q.** And the ΔG (BSA [1]; 1 mM component)?
**A.** 92.40 kJ/mol

**Q.** What about the ΔHcal (BSA [1]; 1 mM component) of the same compound?
**A.** 578.1 kJ/mol

**Q.** What about the ΔHcal/ΔHvH (BSA [1]; 1 mM component) of the same compound?
**A.** 0.921

**Q.** What about the ΔHvH (BSA [1]; 1 mM component) of the same compound?
**A.** 627.7 kJ/mol

**Q.** And the ΔS (BSA [1]; 1 mM component)?
**A.** 1.629 KJ/(mol.K)

**Q.** And the Tm (BSA [1]; 5 mM component)?
**A.** 79.79 °C

**Q.** And the ΔG (BSA [1]; 5 mM component)?
**A.** 110.5 kJ/mol

**Q.** And the ΔHcal (BSA [1]; 5 mM component)?
**A.** 708.7 kJ/mol

**Q.** And the ΔHcal/ΔHvH (BSA [1]; 5 mM component)?
**A.** 0.884

**Q.** What about the ΔHvH (BSA [1]; 5 mM component) of the same compound?
**A.** 801.4 kJ/mol

**Q.** What about the ΔS (BSA [1]; 5 mM component) of the same compound?
**A.** 2.007 KJ/(mol.K)

**Q.** And the Tm (BSA [1]; 10 mM component)?
**A.** 82.78 °C

**Q.** What about the ΔG (BSA [1]; 10 mM component) of the same compound?
**A.** 135.0 kJ/mol

**Q.** What about the ΔHcal (BSA [1]; 10 mM component) of the same compound?
**A.** 828.1 kJ/mol

**Q.** What about the ΔHcal/ΔHvH (BSA [1]; 10 mM component) of the same compound?
**A.** 1.156

**Q.** What about the ΔHvH (BSA [1]; 10 mM component) of the same compound?
**A.** 716.6 kJ/mol

**Q.** And the ΔS (BSA [1]; 10 mM component)?
**A.** 2.325 KJ/(mol.K)

**Q.** What about the Tm (BSA [1]; 25 mM component) of the same compound?
**A.** 84.18 °C

**Q.** What about the ΔG (BSA [1]; 25 mM component) of the same compound?
**A.** 126.8 kJ/mol

**Q.** And the ΔHcal (BSA [1]; 25 mM component)?
**A.** 761.3 kJ/mol

**Q.** What about the ΔHcal/ΔHvH (BSA [1]; 25 mM component) of the same compound?
**A.** 1.019

**Q.** And the ΔHvH (BSA [1]; 25 mM component)?
**A.** 747.2 kJ/mol

**Q.** What about the ΔS (BSA [1]; 25 mM component) of the same compound?
**A.** 2.128 KJ/(mol.K)

**Q.** What about the Tm (BSA [1]; 55 mM component) of the same compound?
**A.** 86.11 °C

**Q.** What about the ΔG (BSA [1]; 55 mM component) of the same compound?
**A.** 132.1 kJ/mol

**Q.** And the ΔHcal (BSA [1]; 55 mM component)?
**A.** 772.9 kJ/mol

**Q.** What about the ΔHcal/ΔHvH (BSA [1]; 55 mM component) of the same compound?
**A.** 0.929

**Q.** What about the ΔHvH (BSA [1]; 55 mM component) of the same compound?
**A.** 831.5 kJ/mol

**Q.** What about the ΔS (BSA [1]; 55 mM component) of the same compound?
**A.** 2.149 KJ/(mol.K)

**Q.** And the Tm (BSA [1]; 200 mM component)?
**A.** 87.23 °C

**Q.** And the ΔG (BSA [1]; 200 mM component)?
**A.** 119.3 kJ/mol

**Q.** And the ΔHcal (BSA [1]; 200 mM component)?
**A.** 702.4 kJ/mol

**Q.** What about the ΔHcal/ΔHvH (BSA [1]; 200 mM component) of the same compound?
**A.** 1.024

**Q.** And the ΔHvH (BSA [1]; 200 mM component)?
**A.** 685.6 kJ/mol

**Q.** What about the ΔS (BSA [1]; 200 mM component) of the same compound?
**A.** 1.956 KJ/(mol.K)

**Q.** And the “increase of BSA Tm (DSC)” value (BSA [1]; FIL at the highest concentration (120 mM) vs water)?
**A.** ~12 °C

**Q.** And the “Tm, Ellipticity 208 nm” value (BSA [2])?
**A.** 92.409 °C

**Q.** What about the “1st CAC” value [3] of the same compound?
**A.** 16.02 mM

**Q.** What about the “2nd CAC” value [3] of the same compound?
**A.** 35.17 mM

**Q.** What about the “3rd CAC” value [3] of the same compound?
**A.** 185.65 mM

**Q.** And the “Distorted Alpha Helix” value (IFN-α2b [4])?
**A.** 0.148

**Q.** And the “Distorted Beta Sheet” value (IFN-α2b [4])?
**A.** 0.064

**Q.** What about the “Regular Alpha Helix” value (IFN-α2b [4]) of the same compound?
**A.** 0.303

**Q.** And the “Regular Beta Sheet” value (IFN-α2b [4])?
**A.** 0.071

**Q.** And the Turns (IFN-α2b [4])?
**A.** 0.188

**Q.** And the Unordered (IFN-α2b [4])?
**A.** 0.226

**Q.** What about the “Tm, Ellipticity 192 nm” value (IFN-α2b [5]) of the same compound?
**A.** 35.992 °C

**Q.** And the “Tm, Ellipticity 208 nm” value (IFN-α2b [5])?
**A.** 61.234 °C

**Q.** What about the “Tm, Ellipticity 222 nm” value (IFN-α2b [5]) of the same compound?
**A.** 56.542 °C
